How the values were obtained:
Assay in all cases: biochemical
Format in all cases: binding
[1] = biological target: T1, panel of 442 kinases (Homo sapiens, UniProt O75460); details: ERN1; for remaining activity at 1 µM: read-out: % of control at 1 µM
T1 construct: purchased Ambit Biosciences (scanMAXX KINOMEscan)

[2] = biological target: T2, panel of 442 kinases (Homo sapiens, UniProt O14757); details: CHEK1; for remaining activity at 1 µM: read-out: % of control at 1 µM
T2 construct: purchased Ambit Biosciences (scanMAXX KINOMEscan)
T2 sequence (O14757 1-476): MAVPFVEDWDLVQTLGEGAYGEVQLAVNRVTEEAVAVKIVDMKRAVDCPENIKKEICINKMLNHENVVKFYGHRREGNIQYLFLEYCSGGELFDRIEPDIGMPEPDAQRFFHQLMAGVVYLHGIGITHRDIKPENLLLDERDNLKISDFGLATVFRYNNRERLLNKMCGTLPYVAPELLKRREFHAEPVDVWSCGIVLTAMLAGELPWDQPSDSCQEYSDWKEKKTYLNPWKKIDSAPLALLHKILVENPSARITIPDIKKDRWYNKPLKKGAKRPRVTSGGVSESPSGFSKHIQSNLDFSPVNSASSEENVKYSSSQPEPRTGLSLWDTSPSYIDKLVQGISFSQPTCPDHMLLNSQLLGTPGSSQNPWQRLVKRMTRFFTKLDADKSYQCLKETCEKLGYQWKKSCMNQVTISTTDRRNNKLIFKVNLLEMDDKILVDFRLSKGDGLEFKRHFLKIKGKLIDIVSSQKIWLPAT

[3] = biological target: T3, panel of 442 kinases (Homo sapiens, UniProt P53778); details: kinase p38-gamma; for remaining activity at 1 µM: read-out: % of control at 1 µM
T3 construct: purchased Ambit Biosciences (scanMAXX KINOMEscan)
T3 sequence (P53778 1-367): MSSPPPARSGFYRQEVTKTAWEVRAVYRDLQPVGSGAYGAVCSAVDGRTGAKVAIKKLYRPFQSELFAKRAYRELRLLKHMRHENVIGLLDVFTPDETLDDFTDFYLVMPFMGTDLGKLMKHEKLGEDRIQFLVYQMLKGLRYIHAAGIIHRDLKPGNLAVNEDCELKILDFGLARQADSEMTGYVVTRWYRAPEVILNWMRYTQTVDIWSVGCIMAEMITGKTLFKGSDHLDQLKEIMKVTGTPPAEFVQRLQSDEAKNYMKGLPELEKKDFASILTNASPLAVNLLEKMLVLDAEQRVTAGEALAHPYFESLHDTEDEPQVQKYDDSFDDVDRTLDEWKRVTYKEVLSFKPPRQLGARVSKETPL

[4] = biological target: T4, panel of 442 kinases (Homo sapiens, UniProt P22455); details: FGFR4; for remaining activity at 1 µM: read-out: % of control at 1 µM
T4 construct: purchased Ambit Biosciences (scanMAXX KINOMEscan)

[5] = biological target: T5, panel of 442 kinases (Homo sapiens, UniProt P23443); details: kinase S6K1; for remaining activity at 1 µM: read-out: S6K1 (% of control at 1 µM)
T5 construct: purchased Ambit Biosciences (scanMAXX KINOMEscan)

[6] = biological target: T6, panel of 442 kinases (Homo sapiens, UniProt Q52WX2); details: kinase SBK1; for remaining activity at 1 µM: read-out: SBK1 (% of control at 1 µM)
T6 construct: purchased Ambit Biosciences (scanMAXX KINOMEscan)

[7] = biological target: T7, panel of 442 kinases (Homo sapiens, UniProt P00533, G719S); details: EGFR(G719S); for remaining activity at 1 µM: read-out: % of control at 1 µM
T7 construct: purchased Ambit Biosciences (scanMAXX KINOMEscan)

[8] = biological target: T8, panel of 442 kinases (Homo sapiens, UniProt P21802); details: FGFR2; for remaining activity at 1 µM: read-out: % of control at 1 µM
T8 construct: purchased Ambit Biosciences (scanMAXX KINOMEscan)

[9] = biological target: T9, panel of 442 kinases (Homo sapiens, UniProt Q13546); details: kinase RIPK1; for remaining activity at 1 µM: read-out: RIPK1 (% of control at 1 µM)
T9 construct: purchased Ambit Biosciences (scanMAXX KINOMEscan)
T9 sequence (Q13546 1-671): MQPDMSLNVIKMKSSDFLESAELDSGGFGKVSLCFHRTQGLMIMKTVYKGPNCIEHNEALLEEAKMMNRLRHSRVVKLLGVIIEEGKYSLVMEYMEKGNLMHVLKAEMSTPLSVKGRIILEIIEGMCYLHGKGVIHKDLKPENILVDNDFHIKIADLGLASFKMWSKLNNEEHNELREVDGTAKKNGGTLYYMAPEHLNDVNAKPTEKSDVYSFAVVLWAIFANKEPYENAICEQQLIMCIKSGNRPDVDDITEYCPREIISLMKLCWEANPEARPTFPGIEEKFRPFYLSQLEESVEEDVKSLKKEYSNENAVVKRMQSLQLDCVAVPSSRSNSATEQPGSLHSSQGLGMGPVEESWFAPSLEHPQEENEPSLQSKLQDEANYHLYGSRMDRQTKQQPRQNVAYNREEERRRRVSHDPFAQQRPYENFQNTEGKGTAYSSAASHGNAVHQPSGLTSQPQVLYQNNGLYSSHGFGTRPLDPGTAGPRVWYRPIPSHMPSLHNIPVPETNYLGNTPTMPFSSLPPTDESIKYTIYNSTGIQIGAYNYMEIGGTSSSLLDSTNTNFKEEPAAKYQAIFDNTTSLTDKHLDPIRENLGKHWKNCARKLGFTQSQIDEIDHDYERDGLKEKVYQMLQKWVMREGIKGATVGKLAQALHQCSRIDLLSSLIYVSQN

[10] = 10 µM, read-out: % of control at 10 µM

T4 sequence (P22455 22-802): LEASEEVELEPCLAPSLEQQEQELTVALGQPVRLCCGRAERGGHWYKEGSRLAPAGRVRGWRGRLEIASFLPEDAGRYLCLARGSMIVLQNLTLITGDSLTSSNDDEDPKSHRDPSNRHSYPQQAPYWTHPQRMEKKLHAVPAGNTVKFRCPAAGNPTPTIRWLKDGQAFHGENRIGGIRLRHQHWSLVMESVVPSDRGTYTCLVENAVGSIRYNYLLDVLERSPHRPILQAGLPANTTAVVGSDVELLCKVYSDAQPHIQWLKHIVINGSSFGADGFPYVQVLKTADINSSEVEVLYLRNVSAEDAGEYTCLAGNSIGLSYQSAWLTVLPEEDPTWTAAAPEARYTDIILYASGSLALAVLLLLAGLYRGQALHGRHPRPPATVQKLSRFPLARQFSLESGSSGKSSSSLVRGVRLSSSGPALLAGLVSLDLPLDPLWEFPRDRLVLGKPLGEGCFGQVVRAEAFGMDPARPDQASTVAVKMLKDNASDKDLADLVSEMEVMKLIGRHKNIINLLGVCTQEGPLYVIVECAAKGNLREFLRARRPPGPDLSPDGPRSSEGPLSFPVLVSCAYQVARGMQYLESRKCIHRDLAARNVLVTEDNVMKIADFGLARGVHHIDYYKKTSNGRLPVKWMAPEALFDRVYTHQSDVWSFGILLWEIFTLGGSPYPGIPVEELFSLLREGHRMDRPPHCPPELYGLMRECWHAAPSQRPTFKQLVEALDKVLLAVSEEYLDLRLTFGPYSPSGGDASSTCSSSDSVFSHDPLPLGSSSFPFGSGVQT
T7 sequence (P00533 25-1210 G719S): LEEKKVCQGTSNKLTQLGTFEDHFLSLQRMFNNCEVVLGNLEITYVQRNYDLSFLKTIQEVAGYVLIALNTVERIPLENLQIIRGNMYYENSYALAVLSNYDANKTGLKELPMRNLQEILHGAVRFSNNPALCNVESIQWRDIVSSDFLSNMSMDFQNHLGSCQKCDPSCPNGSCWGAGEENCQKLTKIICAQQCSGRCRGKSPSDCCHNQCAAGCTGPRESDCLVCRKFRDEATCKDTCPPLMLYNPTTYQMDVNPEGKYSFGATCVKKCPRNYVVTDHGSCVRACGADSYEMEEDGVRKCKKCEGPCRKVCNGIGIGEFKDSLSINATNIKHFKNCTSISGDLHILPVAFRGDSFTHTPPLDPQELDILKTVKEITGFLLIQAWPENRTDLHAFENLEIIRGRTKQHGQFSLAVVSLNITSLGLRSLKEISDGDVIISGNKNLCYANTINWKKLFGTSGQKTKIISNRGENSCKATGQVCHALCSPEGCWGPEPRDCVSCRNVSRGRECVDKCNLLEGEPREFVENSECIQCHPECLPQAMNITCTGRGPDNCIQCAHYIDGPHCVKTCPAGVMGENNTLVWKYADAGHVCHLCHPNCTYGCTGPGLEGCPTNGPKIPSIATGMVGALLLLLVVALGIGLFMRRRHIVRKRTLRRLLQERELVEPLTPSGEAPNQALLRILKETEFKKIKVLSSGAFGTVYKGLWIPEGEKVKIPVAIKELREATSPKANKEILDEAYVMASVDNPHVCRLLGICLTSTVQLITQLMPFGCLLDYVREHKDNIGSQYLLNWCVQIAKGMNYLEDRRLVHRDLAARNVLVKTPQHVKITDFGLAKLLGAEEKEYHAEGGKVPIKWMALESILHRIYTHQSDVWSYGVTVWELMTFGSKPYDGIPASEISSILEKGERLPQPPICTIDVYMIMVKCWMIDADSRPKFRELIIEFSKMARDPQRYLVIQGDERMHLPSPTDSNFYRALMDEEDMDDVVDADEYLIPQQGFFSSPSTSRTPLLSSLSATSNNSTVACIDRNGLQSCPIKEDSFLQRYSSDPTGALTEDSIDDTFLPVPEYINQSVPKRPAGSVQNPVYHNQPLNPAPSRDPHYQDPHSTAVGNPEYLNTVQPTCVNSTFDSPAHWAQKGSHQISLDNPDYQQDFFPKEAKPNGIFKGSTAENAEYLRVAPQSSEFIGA
T5 sequence (P23443 whole entry): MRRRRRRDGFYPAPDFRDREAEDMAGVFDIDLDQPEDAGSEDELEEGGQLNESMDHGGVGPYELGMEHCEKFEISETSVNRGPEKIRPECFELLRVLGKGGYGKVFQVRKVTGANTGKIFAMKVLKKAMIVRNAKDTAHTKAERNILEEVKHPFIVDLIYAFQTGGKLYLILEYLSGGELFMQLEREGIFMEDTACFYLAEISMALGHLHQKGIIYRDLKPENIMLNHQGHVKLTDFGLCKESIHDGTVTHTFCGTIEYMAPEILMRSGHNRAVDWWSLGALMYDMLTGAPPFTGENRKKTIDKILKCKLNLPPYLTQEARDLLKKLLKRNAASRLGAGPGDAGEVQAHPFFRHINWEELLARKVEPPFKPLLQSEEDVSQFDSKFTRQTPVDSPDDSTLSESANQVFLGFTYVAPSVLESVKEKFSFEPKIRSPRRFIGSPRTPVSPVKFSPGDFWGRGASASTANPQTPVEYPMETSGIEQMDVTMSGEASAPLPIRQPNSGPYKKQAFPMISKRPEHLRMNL
T1 sequence (O75460 19-977): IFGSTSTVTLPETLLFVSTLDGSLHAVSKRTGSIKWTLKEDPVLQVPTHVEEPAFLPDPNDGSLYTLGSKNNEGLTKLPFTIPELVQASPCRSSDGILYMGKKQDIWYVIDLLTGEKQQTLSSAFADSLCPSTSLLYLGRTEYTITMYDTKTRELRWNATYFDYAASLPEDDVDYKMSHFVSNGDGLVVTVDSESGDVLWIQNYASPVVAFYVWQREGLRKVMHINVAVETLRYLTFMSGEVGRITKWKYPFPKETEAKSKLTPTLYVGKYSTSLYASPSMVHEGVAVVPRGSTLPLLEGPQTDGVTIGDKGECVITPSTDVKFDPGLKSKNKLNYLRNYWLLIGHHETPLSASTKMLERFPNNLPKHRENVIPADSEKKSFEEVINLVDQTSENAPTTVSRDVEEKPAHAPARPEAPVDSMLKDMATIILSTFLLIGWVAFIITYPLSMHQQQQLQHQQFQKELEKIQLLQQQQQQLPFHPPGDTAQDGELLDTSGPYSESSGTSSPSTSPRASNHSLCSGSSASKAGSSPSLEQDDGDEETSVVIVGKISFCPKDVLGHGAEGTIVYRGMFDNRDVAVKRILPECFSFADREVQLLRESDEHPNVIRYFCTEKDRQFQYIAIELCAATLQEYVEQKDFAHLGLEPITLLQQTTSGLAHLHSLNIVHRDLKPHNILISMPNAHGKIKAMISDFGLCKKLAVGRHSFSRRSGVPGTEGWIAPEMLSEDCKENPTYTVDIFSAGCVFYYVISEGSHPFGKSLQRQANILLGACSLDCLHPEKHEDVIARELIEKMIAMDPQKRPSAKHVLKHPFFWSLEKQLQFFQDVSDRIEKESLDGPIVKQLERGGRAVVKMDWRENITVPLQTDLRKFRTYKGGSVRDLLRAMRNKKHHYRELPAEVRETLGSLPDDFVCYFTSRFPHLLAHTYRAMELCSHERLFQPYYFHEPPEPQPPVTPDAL
T8 sequence (P21802 22-821): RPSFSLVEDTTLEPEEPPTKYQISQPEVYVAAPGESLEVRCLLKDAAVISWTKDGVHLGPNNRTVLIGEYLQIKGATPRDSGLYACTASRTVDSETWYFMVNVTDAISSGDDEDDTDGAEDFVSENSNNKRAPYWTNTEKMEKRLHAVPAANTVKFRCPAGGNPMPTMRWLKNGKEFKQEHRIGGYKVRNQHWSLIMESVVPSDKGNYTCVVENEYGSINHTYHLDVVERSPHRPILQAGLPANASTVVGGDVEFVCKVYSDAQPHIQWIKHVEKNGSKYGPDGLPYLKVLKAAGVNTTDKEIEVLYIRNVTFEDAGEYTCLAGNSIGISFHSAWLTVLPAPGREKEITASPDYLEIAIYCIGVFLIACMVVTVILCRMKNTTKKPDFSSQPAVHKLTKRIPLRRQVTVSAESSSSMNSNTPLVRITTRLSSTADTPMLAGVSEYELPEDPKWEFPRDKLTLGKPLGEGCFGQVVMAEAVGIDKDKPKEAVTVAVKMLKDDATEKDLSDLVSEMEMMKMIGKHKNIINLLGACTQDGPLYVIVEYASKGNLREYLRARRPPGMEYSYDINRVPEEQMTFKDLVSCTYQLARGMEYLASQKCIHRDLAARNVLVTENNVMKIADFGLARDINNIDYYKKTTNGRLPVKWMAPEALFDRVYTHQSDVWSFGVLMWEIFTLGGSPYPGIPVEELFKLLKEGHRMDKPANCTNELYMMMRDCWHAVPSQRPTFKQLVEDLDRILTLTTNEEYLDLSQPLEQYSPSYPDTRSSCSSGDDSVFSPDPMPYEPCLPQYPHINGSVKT
T6 sequence (Q52WX2 whole entry): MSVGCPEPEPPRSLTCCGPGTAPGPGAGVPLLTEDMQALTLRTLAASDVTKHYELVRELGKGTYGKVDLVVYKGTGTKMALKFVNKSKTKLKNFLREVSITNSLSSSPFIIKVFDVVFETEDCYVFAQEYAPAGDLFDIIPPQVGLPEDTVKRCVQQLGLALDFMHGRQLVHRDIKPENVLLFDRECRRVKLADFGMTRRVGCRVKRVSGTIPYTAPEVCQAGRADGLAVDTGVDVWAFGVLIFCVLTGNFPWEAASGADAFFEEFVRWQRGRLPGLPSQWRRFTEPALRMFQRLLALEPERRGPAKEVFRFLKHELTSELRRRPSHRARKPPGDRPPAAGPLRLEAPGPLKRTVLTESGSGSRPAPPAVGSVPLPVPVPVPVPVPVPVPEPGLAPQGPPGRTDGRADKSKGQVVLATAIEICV

| SMILES | remaining activity at 1 µM [1] [%] | remaining activity at 10 µM [1, 10] [%] | remaining activity at 1 µM [2] [%] | remaining activity at 10 µM [2, 10] [%] | remaining activity at 1 µM [3] [%] | remaining activity at 10 µM [3, 10] [%] | remaining activity at 1 µM [4] [%] | remaining activity at 10 µM [4, 10] [%] | remaining activity at 1 µM [5] [%] | remaining activity at 10 µM ([5]; 10 µM, read-out: S6K1 (% of control at 10 µM)) [%] | remaining activity at 1 µM [6] [%] | remaining activity at 10 µM ([6]; 10 µM, read-out: SBK1 (% of control at 10 µM)) [%] | remaining activity at 1 µM [7] [%] | remaining activity at 10 µM [7, 10] [%] | remaining activity at 1 µM [8] [%] | remaining activity at 10 µM [8, 10] [%] | remaining activity at 1 µM [9] [%] | remaining activity at 10 µM ([9]; 10 µM, read-out: RIPK1 (% of control at 10 µM)) [%] |
| --- | --- | --- | --- | --- | --- | --- | --- | --- | --- | --- | --- | --- | --- | --- | --- | --- | --- | --- |
| Nc1cc(C(F)(F)F)c(-c2cc(N3CCOCC3)nc(N3CCOCC3)n2)cn1 [Buparlisib] | 100 | 100 | 79 | 82 | 100 | 100 | 100 | 100 | 88 | 99 | 94 | 100 | 100 | 95 | 98 | 100 | 100 | 100 |
| Cn1c(=O)n(-c2ccc(C(C)(C)C#N)cc2)c2c3cc(-c4cnc5ccccc5c4)ccc3ncc21 [Dactolisib, 2-methyl-2-[4-(3-methyl-2-oxo-8-quinolin-3-yl-2,3-dihydroimidazo[4,5-c]quinolin-1-yl)-phenyl] propionitrile] | 100 |  | 100 |  | 100 |  | 89 |  |  |  | 92 |  | 99 |  | 100 |  | 91 |  |
| COc1ncc(-c2ccc3nccc(-c4ccnnc4)c3c2)cc1NS(=O)(=O)c1ccc(F)cc1F [Omipalisib] | 73 |  | 100 |  | 69 |  | 100 |  | 100 |  | 100 |  | 78 |  | 100 |  | 78 |  |
| FC(F)c1nc2ccccc2n1-c1nc(N2CCOCC2)nc(N2CCOCC2)n1 [ZSTK474, 2-(difluoromethyl)-1-[4,6-di(4-morpholinyl)-1,3,5-triazin-2-yl]-1H-benzimidazole] | 90 |  | 92 |  | 100 |  | 100 |  | 91 |  | 100 |  | 100 |  | 100 |  | 98 |  |

From PMC5564600 (Oncotarget, 2017)
